Data from ChEMBL document CHEMBL1141073, “E-ring modified steroids as novel potent inhibitors of 17beta-hydroxysteroid dehydrogenase type 1” (J Med Chem, 2005).

What was measured:
Type in all cases: cell-based
[1] = target: T1, 17-beta-hydroxysteroid dehydrogenase type 2 (Homo sapiens) (UniProt P37059); assay: Inhibitory activity at 10 uM against 17-beta-hydroxysteroid dehydrogenase type 2 in MDAMB-231 human breast cancer cells using 2 nM [3H]estradiol; details: Cancer cell lines
T1 sequence (whole entry): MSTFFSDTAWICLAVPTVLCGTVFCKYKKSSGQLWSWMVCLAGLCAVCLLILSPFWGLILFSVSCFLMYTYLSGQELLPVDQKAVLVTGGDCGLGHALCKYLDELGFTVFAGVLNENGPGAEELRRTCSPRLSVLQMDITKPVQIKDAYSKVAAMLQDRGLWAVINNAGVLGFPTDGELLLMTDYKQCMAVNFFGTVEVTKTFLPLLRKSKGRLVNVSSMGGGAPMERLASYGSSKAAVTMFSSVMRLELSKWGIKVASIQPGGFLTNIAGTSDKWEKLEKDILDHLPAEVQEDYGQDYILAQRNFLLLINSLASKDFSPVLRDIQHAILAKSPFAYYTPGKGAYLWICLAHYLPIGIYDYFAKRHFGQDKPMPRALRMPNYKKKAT

[2] = target: T2, 17-beta-hydroxysteroid dehydrogenase type 1 (Homo sapiens) (UniProt P14061); assay: Inhibitory activity at 10 uM against 17-beta-hydroxysteroid dehydrogenase type 1 expressed in T47D human breast cancer cells using 2 nM [3H]estrone
T2 sequence (whole entry): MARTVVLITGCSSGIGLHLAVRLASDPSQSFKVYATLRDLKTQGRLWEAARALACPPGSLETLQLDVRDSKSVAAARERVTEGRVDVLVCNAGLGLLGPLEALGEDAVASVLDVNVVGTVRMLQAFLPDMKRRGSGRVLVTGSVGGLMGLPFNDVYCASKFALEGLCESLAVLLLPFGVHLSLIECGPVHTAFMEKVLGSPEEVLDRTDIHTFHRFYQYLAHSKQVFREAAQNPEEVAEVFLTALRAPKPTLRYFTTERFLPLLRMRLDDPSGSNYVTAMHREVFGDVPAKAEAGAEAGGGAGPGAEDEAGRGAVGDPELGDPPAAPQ

[3] = target: T3, 17-beta-hydroxysteroid dehydrogenase type 1 (Homo sapiens, UniProt P14061); assay: Inhibition of 17-beta-hydroxysteroid dehydrogenase type 1 expressed in T47D human breast cancer cells using 2 nM [3H]estrone
T3 sequence (P14061 whole entry): T2 sequence (whole entry)

| Structure (SMILES) | inhibition [1] [%] | inhibition [2] [%] | IC50 [3] [nM] |
| --- | --- | --- | --- |
| Cn1ncc2c1[C@@]1(C)CCC3c4ccc(O)cc4CCC3C1C2 (stereo not given in full) | 32 | 43 | – |
| C[C@]12CCC3c4ccc(O)cc4CCC3C1Cc1c2n[nH]c1C(=O)NCCc1cccnc1 (stereo not given in full) | 3 | 99 | – |
| CC1(C#N)C[C@H]2C3CCc4cc(O)ccc4[C@H]3CC[C@]2(C)C1=O (single isomer, unassigned) | 12 | 85 | – |
| CN1CCN(CNC(=O)c2[nH]nc3c2CC2C4CCc5cc(O)ccc5C4CC[C@]32C)CC1 (stereo not given in full) | 1 | 50 | – |
| C[C@]12CCC3c4ccc(O)cc4CCC3C1Cc1cccnc12 (stereo not given in full) | 34 | 78 | – |
| CC(C)NC(=O)c1[nH]nc2c1CC1C3CCc4cc(O)ccc4C3CC[C@]21C (stereo not given in full) | 0 | 57 | – |
| C[C@]12CCC3c4ccc(O)cc4CCC3C1Cc1cn(CCC#N)nc12 (stereo not given in full) | 44 | 95 | – |
| COCCn1ncc2c1[C@@]1(C)CCC3c4ccc(O)cc4CCC3C1C2 (stereo not given in full) | 55 | 83 | – |
| Cc1cnc(CNC(=O)c2[nH]nc3c2CC2C4CCc5cc(O)ccc5C4CC[C@]32C)cn1 (stereo not given in full) | 61 | 80 | – |
| C[C@]12CCC3c4ccc(O)cc4CCC3C1Cc1c2n[nH]c1C(=O)NCc1cccnc1 (stereo not given in full) | 28 | 92 | – |
| CC(C)Cn1cc2c(n1)[C@@]1(C)CCC3c4ccc(O)cc4CCC3C1C2 (stereo not given in full) | 61 | 77 | – |
| C[C@]12CC[C@@H]3c4ccc(O)cc4CCC3[C@@H]1CC(=N/O)/C2=N\O (single isomer, unassigned) | 2 | 55 | – |
| COC(=O)Cn1cc2c(n1)[C@@]1(C)CCC3c4ccc(O)cc4CCC3C1C2 (stereo not given in full) | 19 | 95 | – |
| COCCn1cc2c(n1)[C@@]1(C)CCC3c4ccc(O)cc4CCC3C1C2 (stereo not given in full) | 48 | 95 | – |
| C[C@]12CC[C@@H]3c4ccc(O)cc4CCC3[C@@H]1C/C(=N/O)C2=O (single isomer, unassigned) | 5 | 95 | 1100 |
| CNC(=O)c1[nH]nc2c1CC1C3CCc4cc(O)ccc4C3CC[C@]21C (stereo not given in full) | 14 | 62 | – |
| C[C@]12CCC3c4ccc(O)cc4CCC3C1Cc1c2n[nH]c1C(=O)NCc1ccccn1 (stereo not given in full) | 9 | 93 | – |

| Structure (SMILES) | inhibition [1] [%] | inhibition [2] [%] | IC50 [3] [nM] |
| --- | --- | --- | --- |
| Cn1cccc1CNC(=O)c1[nH]nc2c1CC1C3CCc4cc(O)ccc4C3CC[C@]21C (stereo not given in full) | 4 | 89 | – |
| C[C@]12CCC3c4ccc(O)cc4CCC3C1CC(C=O)=C2O (stereo not given in full) | 15 | 97 | 110 |
| C[C@]12CCC3c4ccc(O)cc4CCC3C1Cc1c(CO)n[nH]c12 (stereo not given in full) | 1 | 94 | – |
| CCN(C)C(=O)c1[nH]nc2c1CC1C3CCc4cc(O)ccc4C3CC[C@]21C (stereo not given in full) | 6 | 88 | – |
| COC(=O)Cn1ncc2c1[C@@]1(C)CCC3c4ccc(O)cc4CCC3C1C2 (stereo not given in full) | 30 | 79 | – |
| C[C@]12CC[C@@H]3c4ccc(O)cc4CCC3[C@@H]1CC(C#N)C2=O (single isomer, unassigned) | 17 | 77 | 10000 |
| CCOC(=O)C(=O)C1=C(O)[C@@]2(C)CCC3c4ccc(O)cc4CCC3C2C1 (stereo not given in full) | 7 | 75 | – |
| CCOC(=O)c1[nH]nc2c1CC1C3CCc4cc(O)ccc4C3CC[C@]21C (stereo not given in full) | 7 | 94 | – |
| CC(C)Cn1ncc2c1[C@@]1(C)CCC3c4ccc(O)cc4CCC3C1C2 (stereo not given in full) | 44 | 70 | – |
| C[C@]12CCC3c4ccc(O)cc4CCC3C1Cc1c[nH]nc12 (stereo not given in full) | 32 | 97 | 180 |
| Cn1cc2c(n1)[C@@]1(C)CCC3c4ccc(O)cc4CCC3C1C2 (stereo not given in full) | 24 | 94 | – |
| C[C@]12CCC3c4ccc(O)cc4CCC3C1CC(C(=O)C(F)(F)F)=C2O (stereo not given in full) | 1.5 | 78 | – |
| CC1(C)C[C@H]2C3CCc4cc(O)ccc4[C@H]3CC[C@]2(C)C1=O (single isomer, unassigned) | 35 | 95 | – |
| C[C@]12CCC3c4ccc(O)cc4CCC3C1Cc1c2n[nH]c1C(F)(F)F (stereo not given in full) | 36 | 75 | – |
| C[C@]12CCC3c4ccc(O)cc4CCC3C1Cc1c2n[nH]c1C(=O)NCC1CCCO1 (stereo not given in full) | 4 | 87 | – |
| C[C@]12CCC3c4ccc(O)cc4CCC3C1Cc1c2n[nH]c1C(=O)O (stereo not given in full) | 6 | 32 | – |
